Target: human PD-L1 (Homo sapiens (Human), UniProt Q9NZQ7)
Test: Enzyme-Linked Immunosorbent Assay (ELISA), PD-1/PD-L1 binding
Details: PD-1/PD-L1 ELISA, human PD-L1 coated plates, Table 1
How it was run: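 Competitive ELISA: human PD-1 […] (0.31 μg/mL) and serially diluted compounds (1:5) incubated 1 h at 37° C on wells coated with […] human PD-L1. Signal via streptavidin-HRP/TMB, stopped with 2 N H2SO4, measured as A450.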

human PD-L1, sequence (Q9NZQ7 19-239): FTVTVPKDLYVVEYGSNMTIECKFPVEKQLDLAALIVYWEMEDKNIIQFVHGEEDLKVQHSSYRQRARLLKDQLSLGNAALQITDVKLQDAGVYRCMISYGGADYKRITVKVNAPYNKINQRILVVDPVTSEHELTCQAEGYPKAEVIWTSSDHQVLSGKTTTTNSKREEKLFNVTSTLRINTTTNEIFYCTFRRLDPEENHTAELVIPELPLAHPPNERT

Row | SMILES | IC50 [µM]
1 | COc1cc(-c2cccc(-c3cccc(NC(=O)c4c[nH]c(=O)n(C)c4=O)c3C)c2C)cc(F)c1CNCC1(O)CC1 [Example 1.214] | < 0.01
2 | COc1cc(-c2cccc(-c3cccc(Nc4nccc5c4C(=O)N(C)CC5)c3C)c2C)cc(F)c1CNCCO [Example 1.215] | 0.01 to 1
3 | COc1cc(-c2cccc(-c3cccc(NC(=O)c4c[nH]c(=O)n(C)c4=O)c3C)c2C)cc(F)c1CNC1COC1 [Example 1.216] | 0.01 to 1
4 | COc1cc(-c2cccc(-c3cccc(NC(=O)c4c[nH]c(=O)n(C)c4=O)c3C)c2C)cc(F)c1CN[C@@H]1CCCC[C@@H]1O [Example 1.217] | < 0.01
5 | COc1cc(-c2cccc(-c3cccc(NC(=O)c4c[nH]c(=O)n(C)c4=O)c3C)c2C)cc(F)c1CN[C@@H]1CCC[C@@H]1O [Example 1.218] | < 0.01
6 | COc1cc(-c2cccc(-c3cccc(NC(=O)c4c[nH]c(=O)n(C)c4=O)c3C)c2C)cc(F)c1CN(C)CCO [Example 1.220] | < 0.01
7 | COc1cc(-c2cccc(-c3cccc(NC(=O)c4cncn(C)c4=O)c3C)c2C)cc(F)c1CNCCO [Example 1.221] | < 0.01
8 | COc1cc(-c2cccc(-c3cccc(NC(=O)c4c[nH]c(=O)n(C)c4=O)c3C)c2C)cc(F)c1CNC[C@@H](C)O [Example 1.222] | < 0.01
9 | COc1cc(-c2cccc(-c3cccc(NC(=O)c4c[nH]c(=O)n(C)c4=O)c3C)c2C)cc(F)c1CNC[C@H](C)O [Example 1.223] | < 0.01
10 | COc1cc(-c2cccc(-c3cccc(NC(=O)c4c[nH]c(=O)n(C)c4=O)c3C)c2C)cc(F)c1CNC1CCOC1 (stereo not drawn) [Example 1.224] | < 0.01
11 | COc1cc(-c2cccc(-c3cccc(NC(=O)c4c[nH]c(=O)n(C)c4=O)c3C)c2C)cc(F)c1CN[C@H](C)CO [Example 1.225] | < 0.01
12 | COc1cc(-c2cccc(-c3cccc(NC(=O)c4c[nH]c(=O)n(C)c4=O)c3C)c2C)cc(F)c1CN[C@@H](C)CO [Example 1.226] | < 0.01
13 | COc1cc(-c2cccc(-c3cccc(NC(=O)c4c[nH]c(=O)n(C)c4=O)c3C)c2C)cc(F)c1CN1CC(N)C1 [Example 1.227] | < 0.01
14 | COc1cc(-c2cccc(-c3cccc(NC(=O)c4c[nH]c(=O)n(C)c4=O)c3C)c2C)cc(F)c1CN1CCC(N)C1 (stereo not drawn) [Example 1.228] | 0.01 to 1
15 | COc1cc(-c2cccc(-c3cccc(NC(=O)c4c[nH]c(=O)n(C)c4=O)c3C)c2C)cc(F)c1CN[C@@H]1CNC(=O)C1 [Example 1.229] | < 0.01
16 | COc1cc(-c2cccc(-c3cccc(NC(=O)c4c[nH]c(=O)n(C)c4=O)c3C)c2C)cc(F)c1CN[C@H]1CCC(=O)NC1 [Example 1.230] | < 0.01
17 | COc1cc(-c2cccc(-c3cccc(NC(=O)c4c[nH]c(=O)n(C)c4=O)c3C)c2C)cc(F)c1CNCC(C)(C)O [Example 1.232] | < 0.01
18 | COc1cc(-c2cccc(-c3cccc(NC(=O)c4c[nH]c(=O)n(C)c4=O)c3C)c2C)cc(F)c1CNCCN [Example 1.234] | < 0.01
19 | COc1cc(-c2cccc(-c3cccc(NC(=O)c4c[nH]c(=O)n(C)c4=O)c3C)c2C)cc(F)c1CN1CCOCC1 [Example 1.235] | 0.01 to 1
20 | COc1cc(-c2cccc(-c3cccc(NC(=O)c4c[nH]c(=O)n(C)c4=O)c3C)c2C)cc(F)c1CNC(C)C [Example 1.236] | < 0.01
21 | COc1cc(-c2cccc(-c3cccc(Nc4nccc5nccnc45)c3C)c2C)cc(F)c1CNCCO [Example 1.238] | < 0.01

Row | SMILES | IC50 [µM]
22 | COc1cc(-c2cccc(-c3cccc(Nc4nccc5nccnc45)c3C)c2C)cc(F)c1CNCC(N)=O [Example 1.239] | 0.01 to 1
23 | COc1cc(-c2cccc(-c3cccc(Nc4nccc5nccnc45)c3C)c2C)cc(F)c1CNCC(=O)O [Example 1.240] | < 0.01
24 | COc1cc(-c2cccc(-c3cccc(NC(=O)c4c[nH]c(=O)n(C)c4=O)c3C)c2C)cc(F)c1CN(C)C [Example 1.241] | < 0.01
25 | COc1cc(-c2cccc(-c3cccc(NC(=O)c4c[nH]c(=O)n(C)c4=O)c3C)c2C)cc(F)c1CN1CC2(C1)NC(=O)NC2=O [Example 1.242] | 0.01 to 1
26 | COc1cc(-c2cccc(-c3cccc(NC(=O)c4c[nH]c(=O)n(C)c4=O)c3C)c2C)cc(F)c1CN(C)CCC(=O)O [Example 1.247] | 0.01 to 1
27 | COc1cc(-c2cccc(-c3cccc(NC(=O)c4c[nH]c(=O)n(C)c4=O)c3C)c2C)cc(F)c1CN(C)CC(N)=O [Example 1.251] | 0.01 to 1
28 | COc1cc(-c2cccc(-c3cccc(NC(=O)c4c[nH]c(=O)n(C)c4=O)c3C)c2C)cc(F)c1CNCC(N)=O [Example 1.252] | 0.01 to 1
29 | COc1cc(-c2cccc(-c3cccc(NC(=O)c4cncn(C)c4=O)c3C)c2C)cc(F)c1CN[C@H]1CCC(=O)NC1 [Example 1.255] | < 0.01
30 | COc1cc(-c2cccc(-c3cccc(NC(=O)c4c[nH]c(=O)n(C)c4=O)c3C)c2C)cc(F)c1CN1CCC2(C1)NC(=O)NC2=O (stereo not drawn) [Example 1.257] | 0.01 to 1
31 | COc1cc(-c2cccc(-c3cccc(NC(=O)c4cncn(C)c4=O)c3C)c2C)cc(F)c1CNCCS(=O)(=O)O [Example 1.260] | < 0.01
32 | COc1cc(-c2cccc(-c3cccc(NC(=O)c4c[nH]c(=O)n(C)c4=O)c3C)c2C)cc(F)c1CNCC(=O)O [Example 1.261] | < 0.01
33 | COc1cc(-c2cccc(-c3cccc(NC(=O)c4cncn(C)c4=O)c3C)c2C)cc(F)c1CNCCC(=O)O [Example 1.266] | < 0.01
34 | COc1cc(-c2cccc(-c3cccc(NC(=O)c4cncn(C)c4=O)c3C)c2C)cc(F)c1CNCC(=O)O [Example 1.267] | < 0.01
35 | COc1cc(-c2cccc(-c3cccc(NC(=O)c4cncn(C)c4=O)c3C)c2C)cc(F)c1CN(C)CCC(=O)O [Example 1.268] | < 0.01
36 | COc1cc(-c2cccc(-c3cccc(NC(=O)c4cncn(C)c4=O)c3C)c2C)cc(F)c1CN1CCC2(C1)NC(=O)NC2=O (stereo not drawn) [Example 1.269] | < 0.01
37 | COc1cc(-c2cccc(-c3cccc(NC(=O)c4c[nH]c(=O)n(C)c4=O)c3C)c2C)cc(F)c1CNCCO [Example 1.270] | < 0.01
38 | COc1cc(-c2cccc(-c3cccc(NC(=O)c4c[nH]c(=O)n(C)c4=O)c3C)c2C)cc(F)c1CN1CC(O)C1 [Example 1.271] | < 0.01
39 | COc1cc(-c2cccc(-c3cccc(NC(=O)c4cccn(C)c4=O)c3C)c2C)cc(F)c1CNCCCC(=O)O [Example 1.279] | < 0.01
40 | COc1cc(-c2cccc(-c3cccc(NC(=O)c4cccn(C)c4=O)c3C)c2C)cc(F)c1CNCCS(=O)(=O)O [Example 1.280] | < 0.01
41 | COc1cc(-c2cccc(-c3cccc(NC(=O)c4cccn(C)c4=O)c3C)c2C)cc(F)c1CNCC(C)(C)O [Example 1.281] | < 0.01
42 | COc1cc(-c2cccc(-c3cccc(NC(=O)c4cccn(C)c4=O)c3C)c2C)cc(F)c1CNCCC(=O)O [Example 1.282] | < 0.01

More lines, now with the values ahead:

Row | IC50 [µM] | SMILES
43 | 0.01 to 1 | COc1cc(-c2cccc(-c3cccc(Nc4nccc5c4C(=O)N(C)CC5)c3C)c2C)cc(F)c1CN1CC(C(=O)OC(C)C)C1 [Example 1.219]
44 | < 0.01 | COc1cc(-c2cccc(-c3cccc(Nc4nccc5nccnc45)c3C)c2C)cc(F)c1CN1CC(O)C1 [Example 1.231]
45 | 1 to 10 | COc1cc(-c2cccc(-c3cccc(Nc4ncnc5cccnc45)c3C)c2C)cc(F)c1CN1CC(C(=O)O)C1 [Example 1.243]
46 | 0.01 to 1 | COc1cc(-c2cccc(-c3cccc(Nc4nccc5c4OCCN5)c3C)c2C)cc(F)c1CN1CC(C(=O)O)C1 [Example 1.244]
47 | < 0.01 | COc1cc(-c2cccc(-c3cccc(Nc4ccnc5nccnc45)c3C)c2C)cc(F)c1CN1CC(C(=O)O)C1 [Example 1.245]
48 | 0.01 to 1 | COc1cc(-c2cccc(-c3cccc(Nc4cccc5cncnc45)c3C)c2C)cc(F)c1CN1CC(C(=O)O)C1 [Example 1.246]
49 | 0.01 to 1 | COc1cc(-c2cccc(-c3cccc(Nc4cccc5nccnc45)c3C)c2C)cc(F)c1CN1CC(C(=O)O)C1 [Example 1.248]
50 | 0.01 to 1 | COc1cc(-c2cccc(-c3cccc(Nc4nccn5ccnc45)c3C)c2C)cc(F)c1CN1CC(C(=O)O)C1 [Example 1.249]
51 | 0.01 to 1 | COc1cc(-c2cccc(-c3cccc(Nc4cccc5c4C(=O)N(C)C5)c3C)c2C)cc(F)c1CN1CC(C(=O)O)C1 [Example 1.250]
52 | < 0.01 | COc1cc(-c2cccc(-c3cccc(Nc4cncc5nccnc45)c3C)c2C)cc(F)c1CN1CC(C(=O)O)C1 [Example 1.253]
53 | 0.01 to 1 | COc1cc(-c2cccc(-c3cccc(Nc4cccc5cccnc45)c3C)c2C)cc(F)c1CN1CC(C(=O)O)C1 [Example 1.256]
54 | 1 to 10 | COc1cc(-c2cccc(-c3cccc(Nc4nccc5ccccc45)c3C)c2C)cc(F)c1CN1CC(C(=O)O)C1 [Example 1.262]
55 | 0.01 to 1 | COc1cc(-c2cccc(-c3cccc(Nc4ccnc5cccnc45)c3C)c2C)cc(F)c1CN1CC(C(=O)O)C1 [Example 1.263]
56 | 0.01 to 1 | COc1cc(-c2cccc(-c3cccc(Nc4cc5c(cn4)C(=O)NCC5)c3C)c2C)cc(F)c1CN1CC(C(=O)O)C1 [Example 1.264]
57 | < 0.01 | COc1cc(-c2cccc(-c3cccc(Nc4nccc5c4C(=O)N(C)CC5)c3C)c2C)cc(F)c1CN1CC(C(=O)O)C1 [Example 1.265]
58 | 0.01 to 1 | COc1cc(-c2cccc(-c3cccc(NC(=O)c4cnc(C)[nH]c4=O)c3C)c2C)cc(F)c1CN1CC(C(=O)O)C1 [Example 1.272]
59 | < 0.01 | COc1cc(-c2cccc(-c3cccc(Nc4nccc5nccnc45)c3C)c2C)cc(F)c1CN1CC(C(=O)O)C1 [Example 1.273]
60 | 0.01 to 1 | COc1cc(-c2cccc(-c3cccc(NC(=O)c4c(C)cc(C)n(C)c4=O)c3C)c2C)cc(F)c1CN1CC(C(=O)O)C1 [Example 1.275]
61 | < 0.01 | COc1cc(-c2cccc(-c3cccc(NC(=O)c4cccn(CCO)c4=O)c3C)c2C)cc(F)c1CN1CC(C(=O)O)C1 [Example 1.277]
62 | < 0.01 | COc1cc(-c2cccc(-c3cccc(Nc4nccc5ccn(C)c(=O)c45)c3C)c2C)cc(F)c1CN1CC(C(=O)O)C1 [Example 1.278]
63 | < 0.01 | COc1cc(-c2cccc(-c3cccc(NC(=O)c4c[nH]c(=O)n(C)c4=O)c3C)c2C)cc(F)c1CN1CC(C(=O)O)C1 [Example 1.283]
